Source: patent US20240181087A1, “COMPOSITION FOR CONTRAST IMAGING OF CANCER” (ASTELLAS PHARMA INC., priority 2021, published 2024)

System: mouse tumor cell 4T1
Test: near-infrared fluorescence imaging after administration into tumor, 4T1 breast cancer model
Assay type: in vivo
Conditions: 4T1 tumor, 1 mg/mL saline, fluorescence imaging, incl. during tumor excision operation
Excerpt: A syngeneic tumor transplanted mouse model was created as follows referring to “Gan-Shikkan Model no Sakusei to Riyo (Cancer-Creation and Use of Disease Model)” (Takuro Nakamura, LIC, 2012). • (Breast Cancer) A tumor model was created by breeding a normal Balb/c mouse (weight: about 20 g to 30 g) for 14 days with mouse tumor cell 4T1 subcutaneously administered thereto. • (Colorectal Cancer) A tumor model was created by breeding a normal Balb/c mouse (weight: about 20 g to 30 g) for 14 days with CT26 (colorectal cancer cell) subcutaneously administered thereto. • (Skin Cancer) A tumor model was created by breeding a C57BL/6 mouse (weight: about 15 g to 20 g) for 14 days with B16F1 (skin cancer cell) subcutaneously administered thereto.
Subsequently, to the tumor of each of the model mice, 0.02 to 0.05 mL of a saline containing the compound III or ICG (concentration of the compound III or ICG: 1 mg/mL) was administered, and fluorescence imaging was performed transdermally with a near-infrared fluorescence camera (Fluobeam, manufactured by Fluoptics, http://www.solve-net.com/info/wp-content/uploads/downloads/2013/12/Fluobeam.pdf) (excitation wavelength: 780 nm, detection wavelength: 800 nm or more).

## CC1(C)C(/C=C/C=C/C=C/C=C2\N(CCCCS(=O)(=O)O)c3ccc4ccccc4c3C2(C)C)=[N+](CCCCS(=O)(=O)[O-])c2ccc3ccccc3c21 [ICG, indocyanine green, reference compound]
  drawing of tumor outline / exudation to surrounding tissues: fluorescence signals were emitted outside the tumor tissue, and the outline of the tumor could not be drawn
